Results as given in patent US6509361B1, “1,5-Diaryl substituted pyrazoles as p38 kinase inhibitors” (Pharmacia Corporation, priority 2001, dated 2003).

system: TNF-α released by U937 cells (human histiocytic lymphoma cell line); experiment: U937 Cell Assay: LPS stimulation of TNF production by U937 cells, ELISA; assay type: cell-based; conditions: U-937, differentiated U937 cells, LPS 100 ng/ml, 4 hour incubation
Description: Maintenance and Differentiation of the U937 Human Histiocytic Lymphoma Cell Line:
U937 cells (ATCC) were propagated in RPMI 1640 containing 10% fetal bovine serum, 100 IU/ml penicillin, 100 μg/ml streptomycin, and 2 mM glutamine (Gibco). Fifty million cells in 100 ml media were induced to terminal monocytic differentiation by 24 hour incubation with 20 ng/ml phorbol 12-myristate 13-acetate (Sigma). The cells were washed by centrifugation (200×g for 5 min) and resuspended in 100 ml fresh medium. After 24-48 hours, the cells were harvested, centrifuged, and resuspended in culture medium at 2 million cells/ml.
LPS Stimulation of TNF Production by U937 Cells:
U937 cells (0.1 ml, 2 million/ml) were incubated with 0.1 ml compound (0.004-50 μM, final concentration) for 1 hour in 96 well microtiter plates. Compounds were prepared as 10 mM stock solutions in DMSO and diluted in culture medium to yield a final DMSO concentration of 0.1% in the cell assay. LPS (E. coli, 100 ng/ml final concentration) was then added at a volume of 0.02 ml. After 4 hour incubation at 37° C., the amount of TNF-α released in the culture medium was quantitated by ELISA. Inhibitory potency is expressed as IC50 (μM).

IC50 [µM] | Compound
≥ 10 | Cc1cccc(-n2nc(C)cc2-c2cc[nH]c(=O)c2)c1 [Example 23, 4-[1-(3-Methylphenyl)-3-methyl-1H-pyrazol-5-yl]-2-pyridone]
≥ 10 | Cc1cnn(-c2ccc(F)cc2)c1-c1ccncc1 [Example 1]
0.2 | Cc1cc(-c2ccnc(NCc3ccccc3)c2)n(-c2ccc(Cl)cc2)n1 [Example 12]

system: TNF-a (LPS-stimulated human peripheral blood mononuclear cells); experiment: TNF Cell Assay: LPS stimulation of human PBM cells, TNF-a by ELISA; assay type: cell-based; conditions: PBMC, LPS 20 ng/ml, overnight 37° C., compound 10-0.41 μM
Description: Method of Isolation of Human Peripheral Blood Mononuclear Cells:
Human whole blood was collected in Vacutainer tubes containing EDTA as an anticoagulant. A blood sample (7 ml) was carefully layered over 5 ml PMN Cell Isolation Medium (Robbins Scientific) in a 15 ml round bottom centrifuge tube. The sample was centrifuged at 450-500×g for 30-35 minutes in a swing out rotor at room temperature. After centrifugation, the top band of cells were removed and washed 3 times with PBS w/o calcium or magnesium. The cells were centrifuged at 400×g for 10 minutes at room temperature. The cells were resuspended in Macrophage Serum Free Medium (Gibco BRL) at a concentration of 2 million cells/ml.
LPS Stimulation of Human PBMS:
PBM cells (0.1 ml, 2 million/ml) were co-incubated with 0.1 ml compound (10-0.41 μM, final concentration) for 1 hour in flat bottom 96 well microtiter plates. Compounds were dissolved in DMSO initially and diluted in TCM for a final concentration of 0.1% DMSO. LPS (Calbiochem, 20 ng/ml, final concentration) was then added at a volume of 0.010 ml. Cultures were incubated overnight at 37° C. Supernatants were then removed and tested by ELISA for TNF-a and IL1-b. Viability was analyzed using MTS. After 0.1 ml supernatant was collected, 0.020 ml MTS was added to remaining 0.1 ml cells. The cells were incubated at 37° C. for 2-4 hours, then the O.D. was measured at […].

IC50 [µM] | Compound
2.4 | Cc1cccc(-n2nc(C)cc2-c2cc[nH]c(=O)c2)c1 [Example 23, 4-[1-(3-Methylphenyl)-3-methyl-1H-pyrazol-5-yl]-2-pyridone]
0.1 | Cc1cnn(-c2ccc(F)cc2)c1-c1ccncc1 [Example 1]
0.3 | Cc1cc(-c2ccnc(NCc3ccccc3)c2)n(-c2ccc(Cl)cc2)n1 [Example 12]

biological target: T1, human p38 kinase alpha (Homo sapiens, UniProt Q16539); experiment: p38 Kinase Assay (in vitro; PHAS-I/32P-ATP format or EGFRP/33P-ATP format); assay type: biochemical; conditions: activated human p38 kinase alpha, 50 μM unlabeled ATP; table does not say which of the two assay formats
T1 construct: The coding region of the human p38a cDNA was obtained by PCR-amplification from RNA isolated from the human monocyte cell line THP.1; GST (N); made in house; host or cells: E. coli DH10B
T1 sequence (Q16539 whole entry): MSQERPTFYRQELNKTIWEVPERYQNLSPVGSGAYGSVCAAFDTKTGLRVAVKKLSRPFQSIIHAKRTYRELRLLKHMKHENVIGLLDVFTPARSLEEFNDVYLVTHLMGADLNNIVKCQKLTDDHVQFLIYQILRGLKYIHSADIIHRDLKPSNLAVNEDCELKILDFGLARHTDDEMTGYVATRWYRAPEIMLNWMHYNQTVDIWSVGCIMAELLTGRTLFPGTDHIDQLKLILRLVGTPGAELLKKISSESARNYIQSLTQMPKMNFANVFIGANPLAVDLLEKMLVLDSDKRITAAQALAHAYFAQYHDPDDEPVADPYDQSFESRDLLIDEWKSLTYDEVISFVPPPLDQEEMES
Description: The coding region of the human p38a cDNA was obtained by PCR-amplification from RNA isolated from the human monocyte cell line THP.1. First strand cDNA was synthesized from total RNA as follows: 2 μg of RNA was annealed to 100 ng of random hexamer primers in a 10 μl reaction by heating to 70° C. for 10 minutes followed by 2 minutes on ice. cDNA was then synthesized by adding 1 μl of RNAsin (Promega, Madison Wis.), 2 μl of 50 mM dNTP's, 4 μl of 5×buffer, 2 μl of 100 mM DTT and 1 μl (200 U) of Superscript II™ […] reverse transcriptase. Random primer, dNTP's and Superscript™ reagents were all purchased from Life-Technologies, Gaithersburg, Mass. The reaction was incubated at 42° C. for 1 hour. Amplification of p38 cDNA was performed by aliquoting 5 μl of the reverse transcriptase reaction into a 100 μl PCR reaction containing the following: 80 μl dH2O, 2 μl 50 mM dNTP's, 1 μl each of forward and reverse primers (50 pmol/μl), 10 μl of 10× buffer and 1 μl Expand™ polymerase (Boehringer Mannheim). The PCR primers incorporated Bam HI sites onto the 5′ and 3′ end of the amplified fragment, and were purchased from Genosys. The forward and reverse primers were 5′-[…]-3′ and 5′[…]-3′, respectively. The PCR amplification was carried out in a DNA Thermal Cycler (Perkin Elmer) by repeating 30 cycles of 94° C. for 1 minute, 60° C. for 1 minute and 68° C. for 2 minutes. After amplification, excess primers and unincorporated dNTP's were removed from the amplified fragment with a Wizard™ PCR prep (Promega) and digested with Bam HI (New England Biolabs). The Bam HI digested fragment was ligated into BamHI digested pGEX 2T plasmid DNA (PharmaciaBiotech) using T-4 DNA ligase (New England Biolabs) as described by T. Maniatis, Molecular Cloning: A Laboratory Manual, 2nd ed. (1989). The ligation reaction was transformed into chemically competent E. coli DH10B cells purchased from Life-Technologies following the manufacturer's instructions. Plasmid DNA was isolated from the resulting bacterial colonies using a Promega Wizard™ miniprep kit. Plasmids containing the appropriate Bam HI fragment were sequenced in a DNA Thermal Cycler (Perkin Elmer) with Prism™ (Applied Biosystems Inc.). cDNA clones were identified that coded for both human p38a isoforms (Lee et al. Nature 372, 739). One of the clones which contained the cDNA for p38a-2 (CSBP-2) inserted in the cloning site of pGEX 2T, 3′ of the GST coding region was designated pMON 35802. The sequence obtained for this clone is an exact match of the cDNA clone reported by Lee et al. This expression plasmid allows for the production of a GST-p38a fusion protein.
Expression of Human p38a:
GST/p38a fusion protein was expressed from the plasmid pMON 35802 in E. coli, stain DH10B (Life Technologies, Gibco-BRL). Overnight cultures were grown in Luria Broth (LB) containing […] ampicillin. The next day, 500 ml of fresh LB was inoculated with 10 ml of overnight culture, and grown in a 2 liter flask at 37° C. with constant shaking until the culture reached an absorbance of 0.8 at 600 nm. Expression of the fusion protein was induced by addition of isopropyl b-D-thiogalactosidse (IPTG) to a final concentration of 0.05 mM. The cultures were shaken for three hours at room temperature, and the cells were harvested by centrifugation. The cell pellets were stored frozen until protein purification.
Purification of p38 Kinase-α:
All chemicals were from Sigma Chemical Co. unless noted. Twenty grams of E. coli cell pellet collected from five 1 L shake flask fermentations was resuspended in a volume of PBS (140 mM NaCl, 2.7 mM KCl, 10 mM Na2HPO4, 1.8 mM KH2PO4, pH 7.3) up to 200 ml. The cell suspension was adjusted to 5 mM DTT with 2 M DTT and then split equally into five 50 ml Falcon conical tubes. The cells were sonnicated (Ultrasonics model W375) with a 1 cm probe for 3×1 minutes (pulsed) on ice. […]

IC50 [µM] | Compound
9.55 | Cc1cccc(-n2nc(C)cc2-c2cc[nH]c(=O)c2)c1 [Example 23, 4-[1-(3-Methylphenyl)-3-methyl-1H-pyrazol-5-yl]-2-pyridone]
16.8 | Cc1cnn(-c2ccc(F)cc2)c1-c1ccncc1 [Example 1]
0.003 | Cc1cc(-c2ccnc(NCc3ccccc3)c2)n(-c2ccc(Cl)cc2)n1 [Example 12]

system: not given; experiment: not given; conditions: not given

melting point [°C] | Compound
182 to 183 | Cc1cccc(-n2nc(C)cc2-c2cc[nH]c(=O)c2)c1 [Example 23, 4-[1-(3-Methylphenyl)-3-methyl-1H-pyrazol-5-yl]-2-pyridone]
135.86 | Cc1cnn(-c2ccc(F)cc2)c1-c1ccncc1 [Example 1]
105.53 | Cc1cc(-c2ccnc(NCc3ccccc3)c2)n(-c2ccc(Cl)cc2)n1 [Example 12]
